Data as given in patent US20110154724A1, “FATTY ESTER COMPOSITIONS WITH IMPROVED OXIDATIVE STABILITY” (TAMINCO, priority 2008, published 2011).
Each block holds one molecule with its values, some of them ahead of it.

Legend:
[1] = Rancimat oxidative stability (EN 14112) of biodiesel with additives; format: physicochemical; details: for Rancimat oxidative stability: untreated 5.1 hours, EN 14112
Description: The oxidative stability of biodiesel is an important property thereof and is subjected to criteria which may differ from country to country. In the US, oxidative testing of biodiesel is done according to ASTM 6751-08 whereby the B100 (100% biodiesel) must pass a minimum of three hours oxidative stability as done by the Rancimat test. The European oxidation criteria is a minimum of six hours as per EN 14112. Some commercial biodiesel manufacturers and blenders require even eight hours oxidative stability to ensure that B100 biodiesel stored for prolonged periods of time will be suitable for commerce.
Use was made in this example of a pure soy-biodiesel (methyl ester of soy oil) from a commercial source having a Rancimat oxidative stability (tested in accordance with EN 14112) of 5.1 hours.

[2] = 25° C.; cited from earlier work
[3] = Solubility tests of antioxidant package components in alkanolamine / hydroxylamine; format: physicochemical
Description: Additionally, 2 grams of octyldiethanolamine (ODEA) was added to the additive mixture.

[4] = 450 ppm added to B100 soy-biodiesel

oxidation stability ([1]; 250 ppm added to a different sample of soy methyl ester): 3.5 h | Rancimat oxidative stability [1, 4]: 6.1 h
Compound: CCCCN(CCO)CCO [BDEA, butyldiethanolamine]

Compound: CCN(O)CC [Diethylhydroxylamine, diethylhydroxylamine]
vapor pressure [2]: 32 Torr

Compound: CC1(C)CC(O)CC(C)(C)N1[O] [4-HT, 4-hydroxy-2,2,6,6-tetramethylpiperidino-1-oxy]
Rancimat oxidative stability ([1]; 50 ppm added to B100 soy-biodiesel): 5.5 h

solubility in OAE ([3]; 0.5 grams 4-HT along with 1 gram propyl gallate into 15 grams OAE): completely soluble
Compound: CCCOC(=O)c1cc(O)c(O)c(O)c1 [propyl gallate]

solubility in anhydrous DEHA ([3]; 0.5 grams 4-HT into 7.5 grams anhydrous DEHA, additionally 2 grams ODEA): completely soluble | Rancimat oxidative stability [1, 4]: 8.3 h
Compound: CCCCCCCCN(CCO)CCO [ODEA, octyldiethanolamine]
